Key:
cocklebur = assay: Test B pre/postemergence cocklebur; type: in vivo, Xanthium strumarium
In short: (§1)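 Test chemicals in a non-phytotoxic solvent mixture with surfactant were sprayed preemergence onto planted seeds and postemergence onto plants 2 to 18 cm tall (1- to 4-leaf stage). After twelve to sixteen days in a greenhouse, injury was visually rated against untreated controls from 0 (no effect) to 10 (complete control).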

surinam grass = assay: Test B pre/postemergence surinam grass; type: in vivo, Brachiaria decumbens
In short: as §1

wild oat = assay: Test B pre/postemergence wild oat; type: in vivo, Avena fatua
In short: as §1

smallflower flatsedge = assay: Test B flood test smallflower flatsedge; type: in vivo, Cyperus difformis
In short: (§2)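 Plants were grown to the 2-leaf stage before treatment with test chemical, then held in a greenhouse for twelve to sixteen days. Injury was visually rated against untreated controls on a 0–10 scale, where 0 is no effect and 10 is complete control.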

crabgrass = assay: Test B pre/postemergence crabgrass; type: in vivo, Digitaria sanguinalis
In short: as §1

corn = assay: Test B pre/postemergence corn; type: in vivo, Zea mays
In short: as §1

giant foxtail = assay: Test B pre/postemergence giant foxtail; type: in vivo, Setaria faberii
In short: as §1

morningglory = assay: Test B pre/postemergence morningglory; type: in vivo, Ipomoea hederacea
In short: as §1

pigweed = assay: Test B pre/postemergence pigweed; type: in vivo, Amaranthus retroflexus
In short: as §1

blackgrass = assay: Test B pre/postemergence blackgrass; type: in vivo, Alopecurus myosuroides
In short: as §1

velvetleaf = assay: Test B pre/postemergence velvetleaf; type: in vivo, Abutilon theophrasti
In short: as §1

wheat = assay: Test B pre/postemergence wheat; type: in vivo, Triticum aestivum
In short: as §1

bamyardgrass = assay: Test B flood test barnyardgrass; type: in vivo, Echinochloa crus-galli
In short: as §2

rice = assay: Test B flood test rice; type: in vivo, Oryza sativa
In short: as §2

soybean = assay: Test B pre/postemergence soybean; type: in vivo, Glycine max
In short: as §1

bedstraw = assay: Test B pre/postemergence bedstraw; type: in vivo, Galium aparine
In short: as §1

[1] = Postemergence, Rate 62 g/ha, scale 0 to 10, 0 is no effect, 10 is complete control
[2] = Postemergence, Rate 250 g/ha, scale 0 to 10, 0 no effect, 10 complete control
[3] = Preemergence, Rate 31 g/ha, visual rating, scale 0 to 10 (0 no effect, 10 complete control)
[4] = Preemergence, Rate 62 g/ha, scale 0 to 10, 0 is no effect, 10 is complete control
[5] = Preemergence, Rate 125 g/ha, scale 0 to 10 (0 no effect, 10 complete control)
[6] = Preemergence, Rate 250 g/ha, scale of 0 to 10 where 0 is no effect and 10 is complete control
[7] = Rate 31 g/ha, Postemergence, scale 0 to 10
[8] = Rate 125 g/ha, Postemergence, scale 0 to 10, 0 no effect, 10 complete control
[9] = Rate 125 g/ha, Postemergence section (flood test species), scale 0 to 10, 0 no effect, 10 complete control
[10] = flood test, listed under Postemergence, Rate 250 g/ha, scale 0 to 10, 0 no effect, 10 complete control
[11] = Rate 500 g/ha, Postemergence section of Table B, 0 to 10 scale (0 no effect, 10 complete control)

CCN(C(=O)n1oc(=O)n(-c2c(C)cccc2C)c1=O)C1CCCCC1 [Compound 27]
Cocklebur plant response rating (cocklebur; [1]): 0
Cocklebur plant response rating (cocklebur; [2]): 0
Cocklebur plant response rating (cocklebur; [3]): 0
Plant response rating, Cocklebur (cocklebur; [4]): 0
Plant response rating, Cocklebur (cocklebur; [5]): 0
Plant response rating, Cocklebur (cocklebur; [6]): 0
Cocklebur plant response rating (cocklebur; [7]): 0
Cocklebur plant response rating (cocklebur; [8]): 0
B. signalgrass plant response rating (surinam grass; [1]): 0
B. signalgrass plant response rating (surinam grass; [2]): 0
B. signalgrass plant response rating (surinam grass; [3]): 0
Plant response rating, B. signalgrass (surinam grass; [4]): 0
Plant response rating, B. signalgrass (surinam grass; [5]): 0
Plant response rating, B. signalgrass (surinam grass; [6]): 0
B. signalgrass plant response rating (surinam grass; [7]): 0
B. signalgrass plant response rating (surinam grass; [8]): 0
Wild oats plant response rating (wild oat; [1]): 0
Wild oats plant response rating (wild oat; [2]): 0
Wild oats plant response rating (wild oat; [3]): 0
Plant response rating, Wild oats (wild oat; [5]): 0
Plant response rating, Wild oats (wild oat; [6]): 0
Wild oats plant response rating (wild oat; [8]): 0
S. Flatsedge plant response rating (smallflower flatsedge; [1]): 0
S. Flatsedge plant response rating (smallflower flatsedge; [9]): 0
S. Flatsedge plant response rating (smallflower flatsedge; [10]): 0
Crabgrass plant response rating (crabgrass; [1]): 0
Crabgrass plant response rating (crabgrass; [2]): 0
Crabgrass plant response rating (crabgrass; [3]): 0
Plant response rating, Crabgrass (crabgrass; [4]): 0
Plant response rating, Crabgrass (crabgrass; [5]): 0
Plant response rating, Crabgrass (crabgrass; [6]): 0
Crabgrass plant response rating (crabgrass; [7]): 0
Crabgrass plant response rating (crabgrass; [8]): 0
Corn plant response rating (corn; [1]): 0
Corn plant response rating (corn; [2]): 0
Corn plant response rating (corn; [3]): 0
Plant response rating, Corn (corn; [4]): 0
Plant response rating, Corn (corn; [5]): 0
Plant response rating, Corn (corn; [6]): 0
Corn plant response rating (corn; [7]): 0
Corn plant response rating (corn; [8]): 0
Giant foxtail plant response rating (giant foxtail; [1]): 0
Giant foxtail plant response rating (giant foxtail; [2]): 0
Giant foxtail plant response rating (giant foxtail; [3]): 0
Plant response rating, Giant foxtail (giant foxtail; [4]): 0
Plant response rating, Giant foxtail (giant foxtail; [5]): 0
Plant response rating, Giant foxtail (giant foxtail; [6]): 0
Giant foxtail plant response rating (giant foxtail; [7]): 0
Giant foxtail plant response rating (giant foxtail; [8]): 0
Morningglory plant response rating (morningglory; [1]): 0
Morningglory plant response rating (morningglory; [2]): 0
Morningglory plant response rating (morningglory; [3]): 0
Plant response rating, Morningglory (morningglory; [4]): 0
Plant response rating, Morningglory (morningglory; [5]): 0
Plant response rating, Morningglory (morningglory; [6]): 0
Morningglory plant response rating (morningglory; [7]): 0
Morningglory plant response rating (morningglory; [8]): 0
Redroot pigweed plant response rating (pigweed; [1]): 0
Redroot pigweed plant response rating (pigweed; [2]): 0
Redroot pigweed plant response rating (pigweed; [3]): 0
Plant response rating, Redroot pigweed (pigweed; [4]): 0
Plant response rating, Redroot pigweed (pigweed; [5]): 0
Plant response rating, Redroot pigweed (pigweed; [6]): 0
Redroot pigweed plant response rating (pigweed; [7]): 0
Redroot pigweed plant response rating (pigweed; [8]): 0
Blackgrass plant response rating (blackgrass; [1]): 0
Blackgrass plant response rating (blackgrass; [2]): 0
Blackgrass plant response rating (blackgrass; [3]): 0
Plant response rating, Blackgrass (blackgrass; [4]): 0
Plant response rating, Blackgrass (blackgrass; [5]): 0
Plant response rating, Blackgrass (blackgrass; [6]): 0
Blackgrass plant response rating (blackgrass; [7]): 0
Blackgrass plant response rating (blackgrass; [8]): 0
Velvetleaf plant response rating (velvetleaf; [1]): 0
Velvetleaf plant response rating (velvetleaf; [2]): 0
Velvetleaf plant response rating (velvetleaf; [3]): 0
Plant response rating, Velvetleaf (velvetleaf; [4]): 0
Plant response rating, Velvetleaf (velvetleaf; [5]): 0
Plant response rating, Velvetleaf (velvetleaf; [6]): 0
Velvetleaf plant response rating (velvetleaf; [8]): 0
Wheat plant response rating (wheat; [1]): 0
Wheat plant response rating (wheat; [2]): 0
Wheat plant response rating (wheat; [3]): 0
Plant response rating, Wheat (wheat; [4]): 0
Plant response rating, Wheat (wheat; [5]): 0
Plant response rating, Wheat (wheat; [6]): 0
Wheat plant response rating (wheat; [8]): 0
Barnyardgrass plant response rating (bamyardgrass; [1]): 0
Barnyardgrass plant response rating (bamyardgrass; [9]): 0
Barnyardgrass plant response rating (bamyardgrass; [11]): 9
Barnyardgrass plant response rating (bamyardgrass; [10]): 8
Rice plant response rating (rice; [1]): 0
Rice plant response rating (rice; [9]): 0
Rice plant response rating (rice; [11]): 2
Rice plant response rating (rice; [10]): 0
Soybean plant response rating (soybean; [1]): 1
Soybean plant response rating (soybean; [2]): 2
Soybean plant response rating (soybean; [3]): 0
Plant response rating, Soybean (soybean; [4]): 0
Plant response rating, Soybean (soybean; [5]): 0
Plant response rating, Soybean (soybean; [6]): 0
Soybean plant response rating (soybean; [8]): 1
Bedstraw plant response rating (bedstraw; [1]): 0
Bedstraw plant response rating (bedstraw; [2]): 0
Bedstraw plant response rating (bedstraw; [3]): 0
Plant response rating, Bedstraw (bedstraw; [4]): 0
Plant response rating, Bedstraw (bedstraw; [5]): 0
Plant response rating, Bedstraw (bedstraw; [6]): 0
Bedstraw plant response rating (bedstraw; [7]): 0
Bedstraw plant response rating (bedstraw; [8]): 0
